According to patent US20240269298A1, “PHOSPHONYL DERIVATIVE, AND COMPOSITION AND PHARMACEUTICAL APPLICATION THEREOF” (XIZANG HAISCO PHARMACEUTICAL CO., LTD., priority 2021, published 2024):
Like-named read-outs stand apart in the source and are kept apart here.

Key:
[1] = target: T1, EGFR protein in NCI-H1975 EGFR-L858R-T790M-C797S cells (Homo sapiens, UniProt P00533, C797S/L858R/T790M); test: Degradation activity on EGFR protein in NCI-H1975 EGFR-L858R-T790M-C797S cells, Method II (western blot, 48 h); type: cell-based; settings: 48 h incubation, EGFR protein relative to DMSO control
T1 construct: expressed in transfected cells; host or cells: NCI-H1975 EGFR-L858R-T790M-C797S (kept under hygromycin selection)
T1 sequence (P00533 25-1210 T790M/C797S/L858R): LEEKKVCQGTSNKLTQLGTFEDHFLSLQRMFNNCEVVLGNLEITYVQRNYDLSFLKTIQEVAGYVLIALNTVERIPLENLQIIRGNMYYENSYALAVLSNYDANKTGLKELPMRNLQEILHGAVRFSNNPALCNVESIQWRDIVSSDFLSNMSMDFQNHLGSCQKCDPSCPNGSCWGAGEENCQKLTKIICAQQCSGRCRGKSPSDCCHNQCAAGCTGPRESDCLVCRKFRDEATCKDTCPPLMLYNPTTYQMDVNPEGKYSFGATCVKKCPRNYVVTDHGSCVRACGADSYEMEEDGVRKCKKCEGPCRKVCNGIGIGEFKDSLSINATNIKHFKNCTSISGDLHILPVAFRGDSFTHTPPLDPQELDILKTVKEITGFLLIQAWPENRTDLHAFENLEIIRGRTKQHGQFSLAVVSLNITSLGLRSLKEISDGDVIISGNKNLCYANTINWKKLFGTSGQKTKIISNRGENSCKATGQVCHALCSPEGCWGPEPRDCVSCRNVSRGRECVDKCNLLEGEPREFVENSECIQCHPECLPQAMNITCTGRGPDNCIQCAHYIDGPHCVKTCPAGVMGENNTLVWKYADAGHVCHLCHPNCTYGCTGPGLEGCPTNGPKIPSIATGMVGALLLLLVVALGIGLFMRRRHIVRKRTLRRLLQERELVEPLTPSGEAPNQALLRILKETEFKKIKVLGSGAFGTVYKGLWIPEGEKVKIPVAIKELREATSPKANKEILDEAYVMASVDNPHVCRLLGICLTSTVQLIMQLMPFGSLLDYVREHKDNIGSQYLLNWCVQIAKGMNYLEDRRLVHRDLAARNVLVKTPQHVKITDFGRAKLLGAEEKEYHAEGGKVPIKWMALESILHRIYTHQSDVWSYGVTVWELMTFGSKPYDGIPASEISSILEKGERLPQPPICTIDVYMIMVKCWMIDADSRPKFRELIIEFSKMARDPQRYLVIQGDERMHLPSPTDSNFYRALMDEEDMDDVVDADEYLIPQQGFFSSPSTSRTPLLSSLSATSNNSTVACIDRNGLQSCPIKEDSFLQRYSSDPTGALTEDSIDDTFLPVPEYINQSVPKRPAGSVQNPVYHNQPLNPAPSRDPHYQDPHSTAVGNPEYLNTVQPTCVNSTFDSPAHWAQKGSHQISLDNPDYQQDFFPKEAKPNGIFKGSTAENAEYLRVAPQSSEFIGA
Protocol: Protein sample preparation: NCI-H1975 EGFR-L858R-T790M-C797S cells were cultured in an incubator at 37° C. with 5% CO2, and the culture medium was RPMI1640+10% FBS+100 μg/mL hygromycin. The cells in the logarithmic phase were collected, and the cell suspension was adjusted to an appropriate concentration with a hygromycin-free culture medium, plated on a 6-well plate at a density of 350000 cells/well and a volume of 2 mL, and cultured overnight in an incubator at 37° C. with 5% CO2. The next day, the compounds at different concentrations were added. DMSO control wells were provided, wherein the concentration of DMSO in all wells was 0.1%. The 6-well plate was cultured in an incubator at 37° C. with 5% CO2 for 48 h, and then 30 μL of RIPA lysates (Beyotime, Cat. P0013B) containing protease inhibitors (Beyotime, Cat. P0013B) were added. The mixtures were lysed on ice for 30 min. Centrifugation was carried out at 13000 rpm/min at 4° C. for 20 minutes to collect protein supernatant samples, and protein quantification was performed by the BCA method. Western Blot detection samples were prepared.
Western blot detection: 20 μg of protein samples were added to each well, subjected to polyacrylamide gel electrophoresis and transferred to a membrane, and then diluted anti-EGFR (CST, Cat. 4267S) and […] (Kangchen, Cat. KC-5G4) antibodies were added and incubated overnight at 4° C. After washing the membrane, diluted goat anti-rabbit (Licor, Cat. 926-32211) and goat anti-mouse (Licor, Cat. 926-68070) antibodies were added and incubated in the dark for 45 min. Scanning and detection at wavelengths of 700 nm and 800 nm were performed with a far-infrared imaging system (Odyssey).
According to formula (3), the expression level of EGFR protein in the cells relative to the DMSO control group was calculated after incubation with different concentrations of compounds. wherein EGFRcompound was the fluorescence value of EGFR protein after incubation with compounds, and EGFRvehicle was the fluorescence value of EGFR protein in the DMSO control group. Using the Origin 9.2 software, the drug concentration DC50 values when the expression level of EGFR protein was 50% relative to the DMSO control group were calculated.

[2] = tested on: NCI-H1975 EGFR-L858R-T790M-C797S cells; test: Inhibitory activity on proliferation of NCI-H1975 EGFR-L858R-T790M-C797S cells (CellTiter-Glo, 72 h); type: cell-based; settings: Homo sapiens
Summary of the method: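 Cells (1500/well) exposed to graded compound concentrations for 72 h at 37 °C in hygromycin-free RPMI1640 + 10% FBS, 0.1% DMSO vehicle. Viability by CellTiter-Glo luminescence relative to vehicle; IC50 from nonlinear sigmoidal dose-survival fit.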

[3] = Pharmacokinetic test in mice; type: in vivo; settings: male, ICR, mouse, po, administration i.g. (10 mg/kg), plasma
Summary of the method: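 Male ICR mice (20-25 g), fasted 12-14 h before dosing and fed 4 h after, received a single intravenous or intragastric dose. Orbital plasma sampled from 0 to 24 h (5 min-24 h points); LC-MS/MS quantitation for PK parameters and bioavailability.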

| Compound | DC50 [1] | IC50 ([2]; read-out: IC50 (class symbol)) | IC50 ([2]; read-out: IC50 (value)) | AUC [3] | half-life [3] |
| --- | --- | --- | --- | --- | --- |
| COc1cc(N2CCC(CN3CCN(c4ccc5c(c4)C(=O)N(C4CCC(=O)NC4=O)C5=O)CC3)CC2)c(-c2cnn(C)c2)cc1Nc1ncc(Cl)c(Nc2ccc(C3CC3)cc2P(C)(C)=O)n1 (stereo not shown) [Compound 107, 5-(4-((1-(4-((5-chloro-4-((4-cyclopropyl-2-(dimethylphosphoryl)phenyl)amino)pyrimidin-2-yl)amino)-5-methoxy-2-(1-methyl-1H-pyrazol-4-yl)phenyl)piperidin-4-yl)methyl)piperazin-1-yl)-2-(2,6-dioxopiperidin-3-yl)isoindoline-1,3-dione] | < 100 nM | < 200 nM | 45 nM | 130 µg·h/mL | 13.9 h |
| COc1cc(N2CCC(CN3CCN(c4ccc5c(c4)C(=O)N(C4CCC(=O)NC4=O)C5=O)CC3)CC2)c(-c2cnn(C)c2)cc1Nc1ncc(Br)c(Nc2ccc(C3CC3)cc2P(C)(C)=O)n1 (stereo not shown) [Compound 106, 5-(4-((1-(4-((5-bromo-4-((4-cyclopropyl-2-(dimethylphosphoryl)phenyl)amino)pyrimidin-2-yl)amino)-5-methoxy-2-(1-methyl-1H-pyrazol-4-yl)phenyl)piperidin-4-yl)methyl)piperazin-1-yl)-2-(2,6-dioxopiperidin-3-yl)isoindoline-1,3-dione] | < 100 nM | < 200 nM | 112 nM | 145 µg·h/mL | 18 h |
